Format in all cases: functional
Test [1] is described as follows: Cytotoxicity against Homo sapiens (human) colon cancer cells after 48 hr by SRB assay. To be noted: Cancer cell lines.
Test [2] in a line: Cytotoxicity against Homo sapiens (human) renal cancer cells after 48 hr by SRB assay. The note with it: Cancer cell lines. For orientation: The SRB assay estimates cell density from bound dye.
Test [3] can be described thus: Cytotoxicity against Homo sapiens (human) leukemia cells after 48 hr by SRB assay. To be noted: Leukemia cell.
The subject of another test is NCI-H460. The experiment in a line: Cytotoxicity against Homo sapiens (human) NCI-H460 cells assessed as cellular growth after 48 hr by Alamar blue assay. Further details: concentration or dose not given beside the values.
The test system of a further test is MCF7. In words: Cytotoxicity against Homo sapiens (human) MCF7 cells assessed as cellular growth after 48 hr by Alamar blue assay. Further details: concentration or dose not given beside the values. In general terms: Resazurin is reduced to fluorescent resorufin, in cell work by metabolically active cells.
The nature of test [4]: Cytotoxicity against Homo sapiens (human) ovarian cancer cells after 48 hr by SRB assay. To be noted: Cancer cell lines.
Test [5] can be described thus: Cytotoxicity against Homo sapiens (human) melanoma cellsafter 48 hr by SRB assay. The note with it: Melanoma cell.
The nature of test [6]: Cytotoxicity against Homo sapiens (human) breast cancer cells after 48 hr by SRB assay. To be noted: Cancer cell lines; for LC50 (concentration giving 50% net cell kill): pooled result: one value given for 9 cell lines, strains, targets or settings.
The nature of test [7]: Cytotoxicity against Homo sapiens (human) non-small cell lung cancer cells after 48 hr by SRB assay. To be noted: Cancer cell lines.
Another test has as its system SF-268. The experiment in a line: Cytotoxicity against Homo sapiens (human) SF268 cells assessed as cellular growth after 48 hr by Alamar blue assay. Further details: concentration or dose not given beside the values.
A short description of test [8]: Cytotoxicity against Homo sapiens (human) prostate cancer cells after 48 hr by SRB assay. The note with it: Cancer cell lines.
Test [9] in a line: Cytotoxicity against Homo sapiens (human) CNS cancer cells after 48 hr by SRB assay. The note with it: Cancer cell lines.

Turning to `CC(=O)NS(=O)(=O)c1ccc(-n2nc(-c3ccc(Cl)cc3)cc2-c2cc(O)ccc2O)cc1`, the GI50 was 37.6 µM in test [1]; 23.5 µM in [2]; 37.4 µM in test [3]; 44.6 µM in [4]; 36.2 µM in test [5]; 55.3 µM in test [6]. Also, the GI50 in [7] is 36.2 µM; in test [8], 17.7 µM; in test [9], 38.5 µM. Moreover, the TGI turned out to be 66.5 µM in [1]; 59.8 µM in [2]; 92.6 µM in test [3]; 81.2 µM in test [4]; 60.1 µM in [5]; 82.1 µM in test [6]. The values for the total growth inhibition concentration (TGI) in test [7], in [8] and in [9] were 73.7 µM, 38.8 µM and 93.9 µM, respectively. The Activity in the test with NCI-H460, in the test with MCF7 and in the test on SF-268 was under 32% each time. For the same molecule, the LC50 (concentration giving 50% net cell kill) in test [6] worked out at 91.2 µM.
Consider `COc1ccc(OC)c(-c2cc(-c3ccc(Cl)cc3)nn2-c2ccc(S(=O)(=O)NC(C)=O)cc2)c1`, for which the GI50 in test [1] was determined as 8.18 µM; in test [2], 17.7 µM; in test [3] it was 7.45 µM; in test [4] it was 23.4 µM; in test [5], 10.7 µM; in [6] it was 25.4 µM. The values for the GI50 in [7], in [8] and in test [9] were 17.7 µM, 3.61 µM and 19.4 µM, respectively. Besides, the TGI was found to be 36 µM in test [1]; 53.2 µM in test [2]; 50.1 µM in test [3]; 67.1 µM in test [4]; 28.7 µM in test [5]; 70.2 µM in test [6]. In addition, the TGI in test [7] is 52.6 µM; in test [8], 21.9 µM; in [9] it was 50 µM. For the same molecule, the Activity in the test with NCI-H460, in the test with MCF7 and in the test on SF-268 was under 32% each time. The molecule also returned an LC50 (concentration giving 50% net cell kill) in test [6] of 79.2 µM.
Take `O=C(CC1C(=O)NN(c2ccc(Br)cc2)C1=O)c1cc(O)ccc1O` (stereo not given): the GI50 in test [1] stood at 17.7 µM; in test [2], 23.7 µM; in test [3], 34.1 µM; in [4], 26.2 µM; in [5], 22 µM; in [6] it was 16.1 µM. Besides, the GI50 in [7] was 21.7 µM; in [8], 22.7 µM; in [9], 18.8 µM. Besides, the TGI in test [1] came out at 43.3 µM; in [2], 46.9 µM; in test [3], 50 µM; in [4] it was 44.3 µM; in test [5] it was 42.4 µM; in [6], 40.9 µM. Also, the TGI in test [7] was 48.4 µM; in test [8], 50 µM; in test [9] it was 40.5 µM. In addition, the Activity with NCI-H460, in the test with MCF7 and in the test on SF-268 was under 32% each time. The LC50 (concentration giving 50% net cell kill) in test [6] was 49.9 µM.
As for `COc1ccc(OC)c(-c2cc(-c3ccccc3)nn2-c2ccc(S(N)(=O)=O)cc2)c1`, the GI50 was 11.9 µM in test [1]; 13 µM in test [2]; 6.94 µM in test [3]; 13.6 µM in [4]; 15.3 µM in [5]; 12.3 µM in [6]. Moreover, the GI50 in test [7] is 31.4 µM; in [8], 13.9 µM; in [9], 15 µM. Besides, the TGI in [1] is 27.5 µM; in test [2], 29.8 µM; in test [3], 68.5 µM; in test [4], 43.7 µM; in [5] it was 40.8 µM; in test [6], 32.9 µM. Besides, the TGI in [7] came to 40.7 µM; in test [8], 28.8 µM; in test [9], 31.1 µM. Further, the Activity in the test with NCI-H460, in the test on MCF7 and with SF-268 was under 32% each time. Also, the LC50 (concentration giving 50% net cell kill) in test [6] was determined as 73 µM.
In the case of `COc1ccc(OC)c(-c2cc(-c3ccccc3)nn2-c2ccc(S(=O)(=O)NC(C)=O)cc2)c1`, the GI50 in [1] was 3.74 µM; in [2], 13.3 µM; in test [3], 7.4 µM; in [4] it was 13.3 µM; in test [5] it was 15.4 µM; in test [6] it was 9.7 µM. The results for the GI50 in test [7], in test [8] and in test [9] were 15.3 µM, 12 µM and 18.1 µM, respectively. In addition, the TGI in [1] was 18.2 µM; in [2], 37.6 µM; in test [3] it was 53.4 µM; in [4], 50.7 µM; in [5], 36.2 µM; in test [6], 44.5 µM. Besides, the TGI stood at 49.8 µM in test [7], 28.8 µM in test [8] and 42.6 µM in [9]. For the same molecule, the Activity in the test with NCI-H460, with MCF7 and in the test on SF-268 was under 32% throughout. Also, the LC50 (concentration giving 50% net cell kill) in test [6] was 77.1 µM.
For `O=C1C=CC(=O)C(c2cc(-c3ccc(Cl)cc3)nn2-c2ccccc2)=C1`, the GI50 is 42.4 µM in test [1]; 55.6 µM in test [2]; 27.8 µM in test [3]; 67.3 µM in test [4]; 69.4 µM in test [5]; 51.5 µM in test [6]. Further, the GI50 in test [7] is 53.5 µM; in [8], 36.5 µM; in test [9], 65.3 µM. Further, the TGI turned out to be 69.7 µM in [1]; 53.3 µM in test [2]; 87.1 µM in [3]; 81.7 µM in [4]; 55.4 µM in test [5]; 69.3 µM in [6]. Also, the total growth inhibition concentration (TGI) in test [7] is 70.1 µM; in test [8], 66.3 µM; in test [9] it was 55.8 µM. The Activity with NCI-H460, in the test with MCF7 and in the test on SF-268 was under 32% each time. The molecule further gave an LC50 (concentration giving 50% net cell kill) in [6] of 95.6 µM.
On to `CC1=NN(c2ccc(Br)cc2)C(=O)C1CC(=O)c1cc(O)ccc1O` (stereo not given), for which the GI50 in test [1] turned out to be 36 µM; in test [2], 39.8 µM; in [3] it was 7.75 µM; in [4], 34.2 µM; in test [5] it was 28 µM; in test [6] it was 19.1 µM. The 50% growth inhibitory concentration (GI50) in test [7] came to 38.2 µM; in [8] it was 42.2 µM; in [9] it was 25.8 µM. For the same molecule, the TGI in [1] is 45.5 µM; in [2], 46.1 µM; in [3], 35.8 µM; in [4], 50 µM; in test [5], 42.6 µM; in test [6], 38.2 µM. Besides, the figures for the TGI in test [7], in test [8] and in [9] were 48.6 µM, 50 µM and 46 µM, respectively. Moreover, the Activity in the test with NCI-H460, in the test with MCF7 and in the test on SF-268 was under 32% each time. Further, in [6], the LC50 (concentration giving 50% net cell kill) turned out to be 49.6 µM.
In the case of `NS(=O)(=O)c1ccc(-n2nc(-c3ccc(Cl)cc3)cc2-c2cc(O)ccc2O)cc1`, the GI50 in test [1] turned out to be 15.1 µM; in [2], 12 µM; in [3], 5.03 µM; in test [4] it was 14.7 µM; in test [5], 14.6 µM; in test [6] it was 16.7 µM. The values for the GI50 in test [7], in test [8] and in [9] were 13 µM, 13.4 µM and 17.8 µM, respectively. Also, the TGI in test [1] is 43.1 µM; in test [2], 35.4 µM; in test [3] it was 61.4 µM; in test [4] it was 50.9 µM; in test [5], 38.9 µM; in test [6], 54.5 µM. The TGI was found to be 39.1 µM in [7], 29.8 µM in test [8] and 35.5 µM in [9]. Besides, the Activity in the test on NCI-H460, in the test with MCF7 and in the test with SF-268 was under 32% in each case. In test [6], this molecule registered an LC50 (concentration giving 50% net cell kill) of 76.6 µM.
As to `Oc1ccc(O)c(-c2cc(-c3ccc(Cl)cc3)nn2-c2ccccc2)c1`, the GI50 in [1] was 5.75 µM; in [2] it was 8.86 µM; in test [3], 3.43 µM; in test [4], 8.01 µM; in test [5], 8.79 µM; in [6] it was 9.25 µM. The GI50 came to 6.85 µM in test [7], 14.6 µM in test [8] and 17.9 µM in test [9]. The TGI in [1] came out at 16.8 µM; in test [2], 32 µM; in [3] it was 49.7 µM; in test [4] it was 60.4 µM; in [5], 32.5 µM; in test [6], 41.1 µM. Also, the TGI in test [7] amounted to 33.2 µM; in test [8], 30.7 µM; in [9] it was 34.6 µM. Moreover, the Activity in the test with NCI-H460, in the test with MCF7 and with SF-268 was under 32% in each case. The same molecule showed an LC50 (concentration giving 50% net cell kill) in [6] of 76.1 µM.
`NS(=O)(=O)c1ccc(-n2nc(-c3ccc(Cl)cc3)cc2C2=CC(=O)C=CC2=O)cc1`: the GI50 in test [1] was 17.6 µM; in [2], 23.1 µM; in test [3] it was 31.8 µM; in test [4], 26.5 µM; in test [5], 26.7 µM; in test [6], 21.9 µM. Further, the figures for the GI50 in [7], in test [8] and in test [9] were 23.9 µM, 21.6 µM and 23.7 µM, respectively. In addition, the total growth inhibition concentration (TGI) amounted to 37.4 µM in [1]; 50.2 µM in test [2]; 84.6 µM in test [3]; 65.7 µM in [4]; 52.7 µM in test [5]; 62.6 µM in [6]. For the same molecule, the TGI in test [7] is 71.1 µM; in test [8], 71.9 µM; in test [9], 53 µM. Also, the Activity in the test with NCI-H460, with MCF7 and in the test with SF-268 was under 32% each time. In [6], this molecule gave an LC50 (concentration giving 50% net cell kill) of 92.3 µM.

Broadly, the GI50 is the concentration giving 50% growth inhibition. As usually defined, the TGI is the concentration giving total growth inhibition.

Source of the values: ChEMBL document CHEMBL3046588, “Design, synthesis, and in vitro evaluation of cytotoxic activity of new substituted 1,4-benzoquinones and hydroquinones” (2007).
